# Compound: O=[As]([O-])(O)O.[K+] [potassium arsenate]
# Test: thermal stability z-score vs DMSO; higher = more thermally stabilized by treatment
# Details: HeLa; arsenate concentration 1 mM
# Protocol: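 Cellular thermal proteome profiling in HeLa cells treated with 1 mM arsenate for 1 h (DMSO pretreatment), heated to ten temperatures (37-66.3 °C). Soluble protein was quantified by TMT mass spectrometry relative to DMSO controls; the thermal stability score was transformed to a z-score; mean of n = 3 experiments.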
# 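Further: each temperature applied for 3 min, abundance score taken as mean log2 fold change at the two lowest temperatures, z-score obtained by mean subtraction and division by SD.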
# Sequence of UniProt Q6P1X6 (Q6P1X6 whole entry): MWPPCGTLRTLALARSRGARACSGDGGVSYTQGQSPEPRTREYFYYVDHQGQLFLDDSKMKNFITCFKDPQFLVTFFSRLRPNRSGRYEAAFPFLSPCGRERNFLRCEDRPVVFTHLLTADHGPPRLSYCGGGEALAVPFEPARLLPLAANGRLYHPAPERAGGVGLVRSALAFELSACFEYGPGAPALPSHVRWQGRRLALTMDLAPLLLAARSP
# Sequence of UniProt Q96F81 (Q96F81 whole entry): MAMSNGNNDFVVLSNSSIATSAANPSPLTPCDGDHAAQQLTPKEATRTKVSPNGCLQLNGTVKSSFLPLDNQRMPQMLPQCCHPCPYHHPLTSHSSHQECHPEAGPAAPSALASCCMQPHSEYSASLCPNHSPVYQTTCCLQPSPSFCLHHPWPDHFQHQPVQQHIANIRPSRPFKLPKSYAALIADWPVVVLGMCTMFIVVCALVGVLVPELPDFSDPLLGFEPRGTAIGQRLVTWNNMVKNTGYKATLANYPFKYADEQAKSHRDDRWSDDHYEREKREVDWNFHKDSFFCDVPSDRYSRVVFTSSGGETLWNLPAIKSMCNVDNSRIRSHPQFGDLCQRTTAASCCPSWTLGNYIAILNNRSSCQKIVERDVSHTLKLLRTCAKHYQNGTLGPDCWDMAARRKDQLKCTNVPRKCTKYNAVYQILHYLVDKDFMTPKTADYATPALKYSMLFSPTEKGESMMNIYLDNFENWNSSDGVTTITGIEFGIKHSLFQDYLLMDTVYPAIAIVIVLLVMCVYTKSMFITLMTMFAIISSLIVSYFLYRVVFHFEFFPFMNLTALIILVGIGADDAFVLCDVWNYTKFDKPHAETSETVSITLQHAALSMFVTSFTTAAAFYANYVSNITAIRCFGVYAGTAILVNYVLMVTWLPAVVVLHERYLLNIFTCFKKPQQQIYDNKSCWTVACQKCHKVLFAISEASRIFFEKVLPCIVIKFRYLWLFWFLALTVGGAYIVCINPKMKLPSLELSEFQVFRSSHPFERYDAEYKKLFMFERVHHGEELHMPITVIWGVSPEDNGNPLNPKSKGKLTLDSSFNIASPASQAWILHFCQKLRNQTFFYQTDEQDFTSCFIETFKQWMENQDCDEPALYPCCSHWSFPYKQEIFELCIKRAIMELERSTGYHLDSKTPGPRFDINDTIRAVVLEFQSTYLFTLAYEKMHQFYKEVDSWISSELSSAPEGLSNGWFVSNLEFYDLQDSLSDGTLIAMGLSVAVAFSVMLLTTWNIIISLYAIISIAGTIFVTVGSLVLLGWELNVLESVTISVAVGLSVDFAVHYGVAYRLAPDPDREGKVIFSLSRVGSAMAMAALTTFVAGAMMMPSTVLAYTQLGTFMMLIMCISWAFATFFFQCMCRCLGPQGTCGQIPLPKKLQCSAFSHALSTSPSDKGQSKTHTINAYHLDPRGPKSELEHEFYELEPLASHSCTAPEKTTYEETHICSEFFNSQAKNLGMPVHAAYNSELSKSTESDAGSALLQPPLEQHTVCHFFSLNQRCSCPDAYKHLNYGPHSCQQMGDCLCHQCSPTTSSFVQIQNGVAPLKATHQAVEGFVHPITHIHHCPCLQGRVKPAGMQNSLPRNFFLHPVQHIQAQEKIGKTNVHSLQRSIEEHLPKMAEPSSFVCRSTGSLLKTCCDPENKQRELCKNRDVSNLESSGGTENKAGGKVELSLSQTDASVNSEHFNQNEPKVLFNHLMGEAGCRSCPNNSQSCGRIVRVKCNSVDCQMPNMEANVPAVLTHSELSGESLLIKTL
# Sequence of UniProt P43003 (P43003 whole entry): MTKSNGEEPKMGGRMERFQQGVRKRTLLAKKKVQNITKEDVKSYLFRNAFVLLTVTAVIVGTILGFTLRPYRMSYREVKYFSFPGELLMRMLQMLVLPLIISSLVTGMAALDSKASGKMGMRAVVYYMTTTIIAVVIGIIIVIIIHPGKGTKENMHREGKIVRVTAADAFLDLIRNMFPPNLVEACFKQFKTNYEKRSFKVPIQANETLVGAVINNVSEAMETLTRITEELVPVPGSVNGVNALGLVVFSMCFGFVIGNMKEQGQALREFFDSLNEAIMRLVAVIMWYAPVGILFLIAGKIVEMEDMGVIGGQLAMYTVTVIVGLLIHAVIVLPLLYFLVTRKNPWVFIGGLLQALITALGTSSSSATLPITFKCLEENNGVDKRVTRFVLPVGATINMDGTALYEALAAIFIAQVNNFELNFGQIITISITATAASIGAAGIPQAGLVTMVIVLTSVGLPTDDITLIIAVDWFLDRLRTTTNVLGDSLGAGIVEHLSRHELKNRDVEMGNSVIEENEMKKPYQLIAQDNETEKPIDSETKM
# Sequence of UniProt Q9BPX5 (Q9BPX5 whole entry): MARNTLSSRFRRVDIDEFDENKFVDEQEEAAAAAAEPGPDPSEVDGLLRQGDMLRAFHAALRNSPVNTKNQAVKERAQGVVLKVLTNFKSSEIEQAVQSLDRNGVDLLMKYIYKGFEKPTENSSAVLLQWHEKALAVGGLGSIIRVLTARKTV
# Sequence of UniProt P43007 (P43007 whole entry): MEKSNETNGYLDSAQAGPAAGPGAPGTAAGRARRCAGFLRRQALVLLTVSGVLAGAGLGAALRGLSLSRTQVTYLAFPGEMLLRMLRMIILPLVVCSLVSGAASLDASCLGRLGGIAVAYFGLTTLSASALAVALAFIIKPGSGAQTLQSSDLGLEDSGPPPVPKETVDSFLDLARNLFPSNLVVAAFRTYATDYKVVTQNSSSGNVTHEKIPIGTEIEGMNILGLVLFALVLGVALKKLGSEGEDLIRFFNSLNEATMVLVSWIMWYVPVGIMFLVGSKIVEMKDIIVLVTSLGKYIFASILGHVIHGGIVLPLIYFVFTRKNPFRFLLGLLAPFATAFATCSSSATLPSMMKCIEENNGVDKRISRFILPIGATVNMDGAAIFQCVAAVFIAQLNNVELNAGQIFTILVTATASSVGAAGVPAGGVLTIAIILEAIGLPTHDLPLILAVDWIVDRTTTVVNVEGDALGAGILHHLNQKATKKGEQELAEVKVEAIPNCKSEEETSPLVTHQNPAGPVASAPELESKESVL
# Sequence of UniProt Q92917 (Q92917 whole entry): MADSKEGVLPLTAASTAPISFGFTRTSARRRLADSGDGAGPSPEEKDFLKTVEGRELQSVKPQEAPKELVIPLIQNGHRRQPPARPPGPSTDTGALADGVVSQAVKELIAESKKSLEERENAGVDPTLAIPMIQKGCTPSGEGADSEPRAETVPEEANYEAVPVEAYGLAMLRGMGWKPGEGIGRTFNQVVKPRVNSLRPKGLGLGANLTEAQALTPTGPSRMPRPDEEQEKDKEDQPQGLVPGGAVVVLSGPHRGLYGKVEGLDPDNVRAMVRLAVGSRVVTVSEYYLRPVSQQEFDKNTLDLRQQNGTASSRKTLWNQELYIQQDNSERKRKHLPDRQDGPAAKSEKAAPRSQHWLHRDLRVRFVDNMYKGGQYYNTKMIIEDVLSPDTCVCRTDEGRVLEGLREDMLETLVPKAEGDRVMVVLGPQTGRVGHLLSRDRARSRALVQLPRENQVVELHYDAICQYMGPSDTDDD
# Sequence of UniProt Q6P996 (Q6P996 whole entry): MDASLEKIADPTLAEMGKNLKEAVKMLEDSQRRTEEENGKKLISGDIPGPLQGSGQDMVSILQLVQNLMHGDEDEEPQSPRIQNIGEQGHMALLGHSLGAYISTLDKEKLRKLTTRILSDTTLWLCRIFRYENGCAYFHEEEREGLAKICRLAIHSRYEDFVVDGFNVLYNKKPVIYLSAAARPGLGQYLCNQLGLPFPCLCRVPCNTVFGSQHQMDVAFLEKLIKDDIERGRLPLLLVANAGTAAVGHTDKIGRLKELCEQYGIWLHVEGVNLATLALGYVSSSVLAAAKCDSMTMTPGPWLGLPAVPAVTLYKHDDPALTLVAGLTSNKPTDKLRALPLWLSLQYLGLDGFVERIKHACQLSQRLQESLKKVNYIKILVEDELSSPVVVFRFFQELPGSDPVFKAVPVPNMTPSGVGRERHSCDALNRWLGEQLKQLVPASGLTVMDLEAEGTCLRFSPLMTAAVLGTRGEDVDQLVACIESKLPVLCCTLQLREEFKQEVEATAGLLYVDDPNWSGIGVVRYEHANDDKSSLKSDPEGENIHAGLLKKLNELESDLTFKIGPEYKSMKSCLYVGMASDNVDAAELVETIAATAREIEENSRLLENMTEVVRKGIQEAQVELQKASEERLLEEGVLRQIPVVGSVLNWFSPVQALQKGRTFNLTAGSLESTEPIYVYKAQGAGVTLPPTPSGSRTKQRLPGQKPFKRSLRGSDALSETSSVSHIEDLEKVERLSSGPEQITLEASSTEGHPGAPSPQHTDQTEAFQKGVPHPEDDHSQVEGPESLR
# Sequence of UniProt Q86VQ1 (Q86VQ1 whole entry): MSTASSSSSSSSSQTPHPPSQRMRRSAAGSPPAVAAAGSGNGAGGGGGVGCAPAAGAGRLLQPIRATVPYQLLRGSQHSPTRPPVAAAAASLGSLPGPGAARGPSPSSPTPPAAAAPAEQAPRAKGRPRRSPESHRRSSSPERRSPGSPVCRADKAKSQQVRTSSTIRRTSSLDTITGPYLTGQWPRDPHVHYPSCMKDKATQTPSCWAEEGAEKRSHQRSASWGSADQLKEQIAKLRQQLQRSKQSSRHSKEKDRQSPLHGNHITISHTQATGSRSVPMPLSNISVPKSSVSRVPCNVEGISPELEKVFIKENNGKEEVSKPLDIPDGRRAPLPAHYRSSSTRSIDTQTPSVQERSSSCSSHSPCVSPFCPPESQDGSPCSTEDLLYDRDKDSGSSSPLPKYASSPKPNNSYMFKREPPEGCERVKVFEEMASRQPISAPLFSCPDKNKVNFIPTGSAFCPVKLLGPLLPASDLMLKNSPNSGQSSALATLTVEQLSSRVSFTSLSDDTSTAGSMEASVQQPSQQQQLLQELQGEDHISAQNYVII
# Sequence of UniProt O14966 (O14966 whole entry): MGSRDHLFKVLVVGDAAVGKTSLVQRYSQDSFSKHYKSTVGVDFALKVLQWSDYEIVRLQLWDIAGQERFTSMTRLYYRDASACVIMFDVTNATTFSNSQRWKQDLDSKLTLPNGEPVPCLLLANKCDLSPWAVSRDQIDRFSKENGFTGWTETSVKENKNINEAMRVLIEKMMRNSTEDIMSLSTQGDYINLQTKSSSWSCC
row,Target,thermal stability z-score
1,SLC1A4 (UniProt P43007),-0.588
2,TCF3 (UniProt P15923),-0.203
3,NEDD4L (UniProt Q96PU5),0.0653
4,GTF3C5 (UniProt Q9Y5Q8),-0.367
5,KIF11 (UniProt P52732),1.19
6,DISP1 (UniProt Q96F81),-1.07
7,PDXDC1 (UniProt Q6P996),0.73
8,MRPL41 (UniProt Q8IXM3),0.448
9,TANC2 (UniProt Q9HCD6),-0.0159
10,RBBP6 (UniProt Q7Z6E9),-0.263
11,GLCCI1 (UniProt Q86VQ1),-0.627
12,RABAC1 (UniProt Q9UI14),-0.431
13,ARPC5L (UniProt Q9BPX5),-0.302
14,SLC1A3 (UniProt P43003),0.352
15,FER (UniProt P16591),0.326
16,TMEM41B (UniProt Q5BJD5),-0.153
17,NRDE2 (UniProt Q9H7Z3),-0.184
18,C8ORF82 (UniProt Q6P1X6),-0.319
19,RUFY2 (UniProt Q8WXA3),-0.0152
20,CCDC97 (UniProt Q96F63),-0.925
21,RAD21 (UniProt O60216),0.297
22,NSMAF (UniProt Q92636),-0.758
23,GPKOW (UniProt Q92917),-1.58
24,CCZ1B|CCZ1,0.404
25,THRAP3 (UniProt Q9Y2W1),-0.985
26,EARS2 (UniProt Q5JPH6),0.0121
27,RAB29 (UniProt O14966),0.157
28,ATP5J (UniProt P18859),1.53

row,Target,thermal stability z-score
1,PIK3R2 (UniProt O00459),-0.17
2,NCBP1 (UniProt Q09161),-0.0646
3,TNKS1BP1 (UniProt Q9C0C2),3.12
4,EIF3I (UniProt Q13347),-0.363
5,STUB1 (UniProt Q9UNE7),0.207
6,ARHGAP29 (UniProt Q52LW3),-1.28
7,EPM2AIP1 (UniProt Q7L775),-0.0491
8,GTF2H2|GTF2H2C,-0.166
9,ERBB2IP (UniProt Q96RT1),-1.94
10,NUDC (UniProt Q9Y266),0.573
11,SLC9A3R2 (UniProt Q15599),-0.923
12,ACAT2 (UniProt Q9BWD1),-0.347
13,MOV10 (UniProt Q9HCE1),-0.16
14,INTS3 (UniProt Q68E01),0.26
15,UBIAD1 (UniProt Q9Y5Z9),-0.362
16,FOXK1 (UniProt P85037),1.86
17,CCDC25 (UniProt Q86WR0),0.439
18,SPTBN1 (UniProt Q01082),-1.61
19,OGFOD1 (UniProt Q8N543),1.04
20,CORO1C (UniProt Q9ULV4),1.13
21,COG6 (UniProt Q9Y2V7),-0.012
22,FAM234B (UniProt A2RU67),-0.192
23,FAM210A (UniProt Q96ND0),-0.189
24,TTC5 (UniProt Q8N0Z6),-0.0548
25,UBE2Q1 (UniProt Q7Z7E8),-0.514
26,CNDP2 (UniProt Q96KP4),0.248
27,PLEKHO2 (UniProt Q8TD55),-0.257

# Compound: NC(=O)CCCCC1CCSS1 [lipoamide]
# Test: as above
# Details: HeLa; lipoamide concentration 100 µM; arsenate co-treatment: 1 mM arsenate 1 h
# Protocol: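 Cellular thermal proteome profiling in HeLa cells. Cells were treated with 100 µM lipoamide for 1 h, with or without 1 mM arsenate for a further 1 h, then heated to ten temperatures (37-66.3 °C), and soluble protein was quantified by TMT mass spectrometry relative to 0.1% DMSO controls. The thermal stability score (sum of log2 fold changes minus the abundance score) was transformed to a z-score; mean of n = 3 experiments.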
row,Target,thermal stability z-score
1,SLC1A4 (UniProt P43007),-0.807
2,TCF3 (UniProt P15923),-0.098
3,NEDD4L (UniProt Q96PU5),-0.314
4,GTF3C5 (UniProt Q9Y5Q8),0.0669
5,KIF11 (UniProt P52732),-0.347
6,DISP1 (UniProt Q96F81),0.342
7,PDXDC1 (UniProt Q6P996),-0.964
8,MRPL41 (UniProt Q8IXM3),-0.202
9,TANC2 (UniProt Q9HCD6),-0.0889
10,RBBP6 (UniProt Q7Z6E9),0.06
11,GLCCI1 (UniProt Q86VQ1),-0.207
12,RABAC1 (UniProt Q9UI14),0.138
13,ARPC5L (UniProt Q9BPX5),0.0991
14,SLC1A3 (UniProt P43003),-0.157
15,FER (UniProt P16591),0.209
16,TMEM41B (UniProt Q5BJD5),0.259
17,NRDE2 (UniProt Q9H7Z3),0.0849
18,C8ORF82 (UniProt Q6P1X6),0.229
19,RUFY2 (UniProt Q8WXA3),-0.19
20,CCDC97 (UniProt Q96F63),-0.00687
21,RAD21 (UniProt O60216),0.628
22,NSMAF (UniProt Q92636),-0.123
23,GPKOW (UniProt Q92917),0.182
24,CCZ1B|CCZ1,0.296
25,THRAP3 (UniProt Q9Y2W1),1.84
26,EARS2 (UniProt Q5JPH6),-1
27,RAB29 (UniProt O14966),0.114
